# Results from article PMC11281031, “A Machine-Learning-Driven Pathophysiology-Based New Approach Method for the Dose-Dependent Assessment of Hazardous Chemical Mixtures and Experimental Validations” (Toxics, 2024).
# Assays:
# Type in all cases: in vivo
# zebrafish embryos [1] = assay: Dose-response zebrafish live assay, single chemicals (developmental toxicity); settings: for concentration at which embryos were relatively normal / symptoms absent / lowest dose causing significant developmental abnormalities (toxic at): 2 dpf; for lethal concentration: 100% lethality / lethal by
# Experimental: Dose-dependent toxicities in zebrafish embryos were assessed by the lowest dose that caused significant developmental abnormalities 2 days post-fertilization (2 dpf) in a dose-response live assay. […] Starting with Pyraclostrobin, it was identified as toxic at 30 nM. It induced developmental delays in the embryos without visible deformities. […] It appeared relatively normal at 5 µM. This twitching phenotype indicates specific neuronal toxicity. […] These symptoms were absent at lower concentrations (30 µM), highlighting a dosage-sensitive relationship.
# (§1) First, the toxicity of single chemicals in zebrafish embryos is determined. Using the toxicity data of single chemicals as a baseline, we screened mixtures for altered activity and characterized the optimal concentration ratios of components. For chemical treatments, 1000× working stocks are prepared in DMSO. Dechorionated zebrafish embryos, […], are placed in 0.5 mL of fish water (0.3 g/L sea salt) in 24-well plates. The 1000× stock solution of chemicals is diluted to 2× in fish water with 2% DMSO added. Then, 0.5 mL of the 2× diluted chemical solution is added to the 0.5 mL of fish water containing the embryos to achieve a final concentration of 1× compound in 1% DMSO.
# Figure 9 Dose-dependent toxicity assessment of AI-CPTM predicted chemicals (Table 1, Table 2, Table 3 and Table 4) as the lowest dose leading to, what is defined here, as significant developmental abnormalities at 2 days post-fertilization (2 dpf) in a dose-response zebrafish live assay.
# We assessed individual chemicals for developmental toxicity, indicating any disruption in embryonic development from 1 to 4 days post-fertilization (dpf). Embryos are exposed to chemicals in their bath water from 1 dpf to 4 dpf, without changing the water during exposure. Initially, chemicals are screened by testing them at a series of concentrations increasing by half-log steps. […] Each embryo is assigned a score reflecting the severity of observed phenotypes, with the average score representing the group. The EC50 for developmental toxicity is defined as a score of five on this teratogenicity scale (Figure 10 and Supplementary Material S2). Once the effective range is identified, the EC50 is determined by testing a linear series of concentrations spanning from non-toxic to toxic levels. For chemicals not toxic at 10 µM, tests are extended up to 200 µM, with those showing no effects at this level considered non-toxic.
# zebrafish embryos [2] = assay: Zebrafish-embryo mixture toxicity, mixed chemical phenotype score and interaction; settings: with DMSO, max 20 = normal
# Experimental: as §1
# Figure 10 Mixed chemical phenotypes and how they are scored. The mixed chemical phenotype score is the sum of the scores for the five individual fish in a well. Two wells were treated per chemical combination, and the scores are averaged for the wells. Scoring was as follows: dead = 0; severely deformed = 1; deformed = 2; slightly deformed = 3; and normal phenotypes = 4.
# We tested the top 300 chemical mixtures, as prioritized by AI-CPTM, which were randomly selected and readily purchasable, on zebrafish embryos. […] We then compared the toxicity predictions made by the machine-learning model with the results obtained from the zebrafish assays.
# The EC50, indicating the median effective concentration for developmental toxicity, is determined using morphological criteria. Fish are identified by date and well number (Figure 10). In each well containing five fish, the mixed compound phenotype score is the sum of the scores for the individual fish. Two wells are treated per combination, and the scores are averaged across these wells (Supplementary Material S2). Scoring follows this scale: dead = 0; severely deformed = 1; deformed = 2; slightly deformed = 3; normal phenotypes = 4. […] The EC50 and lowest observable effect concentration (LOEC) for binary mixtures are determined by testing a linear concentration series of the first chemical against five concentrations of the second chemical, including a vehicle control.
# zebrafish embryos [3] = assay: PFOS/PFOA zebrafish-embryo lethality (LD50), sub-lethal effects (EC50) and mixture survival assay; settings: for LD50: embryos exposed at 2 dpf for 24 h at 33 °C, average of three experiments; for EC50: sub-lethal adverse effects, exposed at 2 dpf for 24 h at 33 °C
# From the text: The methodology for assessing the toxicity in zebrafish is detailed in our earlier publication. The data presented in Table 3 and Table 4 and Figure 12 show the acute and sub-lethal toxicity of PFOS and PFOA individually and in combination with zebrafish embryos. This initial study offered a comparative insight into their toxic profiles in terms of lethal (LD50) and effective (EC50) concentrations, which are important for measuring their toxic effects. […] These concentrations reflect the exposure of zebrafish embryos to PFOS and PFOA at 2 days post-fertilization (dpf) for one day at a temperature of 33 °C. […] These effects include severe developmental abnormalities, such as bent body axis, edema, cloudy tissue formation, and developmental delays, signaling significant toxicity even at lower concentrations.
# We explored further the combined effects of PFOS and PFOA, as shown in Table 4 and Figure 12, to examine how varying concentrations of PFOS affect the LD50 of PFOA in a mixture. The LD50 is the dose at which 50% of the embryos are dead. […] A five dose-response curve for PFOA was tested against three fixed concentrations, 68 µM, 38 µM, and 22 µM of PFOS at 2 dpf for one day at 33 °C. […] Nonetheless, as each experiment is internally controlled, relative toxicity and mixture interactions are accurately detected.
# PFOS requires a lower concentration to be lethal and affects development at much lower concentrations compared to PFOA. […] Five concentrations of PFOA were tested to generate the dose-response curves. […] Overall, these experiments support predictions of AI-CPTM toxicity and chemical interaction effects.
# [4] = single chemical, tested up to 200 µM
smiles,measurement,setting,value
CC(C)(C)[C@@H](O)[C@@H](Cc1ccc(Cl)cc1)n1cncn1 (racemic) [Paclobutrazol],concentration at which embryos were relatively normal / symptoms absent,zebrafish embryos [1]; single chemical,30000 nM
same,lowest dose causing significant developmental abnormalities (toxic at),zebrafish embryos [1]; [4],50 µM
same,phenotype score of single chemical (Average / Compound #1 / Compound #2 phenotype score),zebrafish embryos [2]; 50 µM,17.5
same,phenotype score of single chemical (Average / Compound #1 / Compound #2 phenotype score),zebrafish embryos [2]; 100 µM,20
"Oc1c(Br)cc(Br)cc1Br [2,4,6-Tribromophenol]",lowest dose causing significant developmental abnormalities (toxic at),zebrafish embryos [1]; [4],2 µM
same,lethal concentration,zebrafish embryos [1]; single chemical,10 µM
same,phenotype score of single chemical (Average / Compound #1 / Compound #2 phenotype score),zebrafish embryos [2]; 2 µM,14
same,phenotype score of single chemical (Average phenotype score),zebrafish embryos [2]; 4 µM,0
CC1(C)C(C=C(Cl)Cl)C1C(=O)OC(C#N)c1ccc(F)c(Oc2ccccc2)c1 (stereo not drawn) [Baythroid],effect on embryo development (Figure 11),zebrafish embryos [1]; at 200 µm,pronounced deformities
same,lowest dose causing significant developmental abnormalities (toxic at),zebrafish embryos [1]; [4],20 µM
CCCCC(CC)COC(=O)c1ccccc1C(=O)OCC(CC)CCCC (stereo not drawn) [Bis-(2-Ethylhexyl) Phthalate],effect on embryo development (Figure 11),zebrafish embryos [1]; at 200 µm,pronounced deformities
same,lowest dose causing significant developmental abnormalities (toxic at),zebrafish embryos [1]; [4],> 200 µM
CCCCOCN(C(=O)CCl)c1c(CC)cccc1CC [Butachlor],effect on embryo development (Figure 11),zebrafish embryos [1]; at 200 µm,pronounced deformities
same,concentration at which embryos were relatively normal / symptoms absent,zebrafish embryos [1]; single chemical,100000 nM
same,lowest dose causing significant developmental abnormalities (toxic at),zebrafish embryos [1]; [4],200 µM
same,phenotype score of single chemical (Average / Compound #1 / Compound #2 phenotype score),zebrafish embryos [2]; 100 µM,16
same,phenotype score of single chemical (Average phenotype score),zebrafish embryos [2]; 200 µM,0
"O=C(OC1CCCCC1)c1ccccc1C(=O)OC1CCCCC1 [Dicyclohexyl Phthalate, Dicyclohexyl Phthalate (DCHP)]",effect on embryo development (Figure 11),zebrafish embryos [1]; at 200 µm,marked malformations and growth retardation
same,lowest dose causing significant developmental abnormalities (toxic at),zebrafish embryos [1]; [4],200 µM
same,phenotype score of single chemical (Average / Compound #1 / Compound #2 phenotype score),zebrafish embryos [2]; 100 µM,20
same,phenotype score of single chemical (Average phenotype score),zebrafish embryos [2]; 200 µM,20
CC1(C)C(C(=O)OC(C#N)c2cccc(Oc3ccccc3)c2)C1(C)C (stereo not drawn) [Fenpropathrin],concentration at which embryos were relatively normal / symptoms absent,zebrafish embryos [1]; single chemical,5000 nM
same,lowest dose causing significant developmental abnormalities (toxic at),zebrafish embryos [1]; [4],10 µM
same,phenotype score of single chemical (Average / Compound #1 / Compound #2 phenotype score),zebrafish embryos [2]; 5 µM,10
same,phenotype score of single chemical (Average phenotype score),zebrafish embryos [2]; 10 µM,0
COCc1cnc(C2=NC(C)(C(C)C)C(=O)N2)c(C(=O)O)c1 (stereo not drawn) [Imazamox],effect on embryo development (Figure 11),zebrafish embryos [1]; at 200 µm,marked malformations and growth retardation
same,lowest dose causing significant developmental abnormalities (toxic at),zebrafish embryos [1]; [4],> 200 µM
"CC(CNCc1ccccc1O)NCc1ccccc1O (stereo not drawn) [Motor fuel oil, Alpha, alpha’-(1-methylethylenediimino)di-ortho-cresol]",concentration at which embryos were relatively normal / symptoms absent,zebrafish embryos [1]; single chemical,1000 nM
same,lowest dose causing significant developmental abnormalities (toxic at),zebrafish embryos [1]; [4],5 µM
same,lethal concentration,zebrafish embryos [1]; single chemical,10 µM
same,phenotype score of single chemical (Average / Compound #1 / Compound #2 phenotype score),zebrafish embryos [2]; 2.5 µM,16
same,phenotype score of single chemical (Average / Compound #1 / Compound #2 phenotype score),zebrafish embryos [2]; 5 µM,6
"O=C(O)C(F)(F)C(F)(F)C(F)(F)C(F)(F)C(F)(F)C(F)(F)C(F)(F)F [PFOA, Perfluorooctanoic acid (PFOA)]",LD50,zebrafish embryos [3],187.5 µM
same,EC50,zebrafish embryos [3],29.5 µM
"O=S(=O)(O)C(F)(F)C(F)(F)C(F)(F)C(F)(F)C(F)(F)C(F)(F)C(F)(F)C(F)(F)F [PFOS, Perfluorooctane sulfonic acid (PFOS)]",survival,"zebrafish embryos [3]; 68 μM PFOS, 0 μM PFOA",100%
same,LD50,zebrafish embryos [3],53 µM
same,EC50,zebrafish embryos [3],11 µM
COc1cnc(OC)n2nc(NS(=O)(=O)c3c(OCC(F)F)cccc3C(F)(F)F)nc12 [Penoxsulam],effect on embryo development (Figure 11),zebrafish embryos [1]; at 200 µm,moderate deformities
same,lowest dose causing significant developmental abnormalities (toxic at),zebrafish embryos [1]; [4],> 200 µM
COC(=O)N(OC)c1ccccc1COc1ccn(-c2ccc(Cl)cc2)n1 [Pyraclostrobin],effect on embryo development (Figure 11),zebrafish embryos [1]; at 30 nm,minimal effects
same,effect on embryo development (Figure 11),zebrafish embryos [1]; at 200 µm,significant embryonic damage
same,concentration resulting in embryo lysis,zebrafish embryos [1]; single chemical,100 nM
same,lowest dose causing significant developmental abnormalities (toxic at),zebrafish embryos [1]; single chemical,0.03 µM
same,phenotype score of single chemical (Average / Compound #1 / Compound #2 phenotype score),zebrafish embryos [2]; 0.01 µM,20
same,phenotype score of single chemical (Average phenotype score),zebrafish embryos [2]; 0.02 µM,20
CC(C)(C)c1ccc(CSc2cnn(C(C)(C)C)c(=O)c2Cl)cc1 [Pyridaben],effect on embryo development (Figure 11),zebrafish embryos [1]; at 50 nm,noticeable developmental delays and morphological abnormalities
same,concentration causing developmental stalling at the 8-somite stage,zebrafish embryos [1]; single chemical,100 nM
same,lowest dose causing significant developmental abnormalities (toxic at),zebrafish embryos [1]; single chemical,0.05 µM
same,phenotype score of single chemical (Average / Compound #1 / Compound #2 phenotype score),zebrafish embryos [2]; 0.05 µM,20
same,phenotype score of single chemical (Average phenotype score),zebrafish embryos [2]; 0.1 µM,18.5
CC/C(=N\OC/C=C/Cl)C1=C(O)CC(C2CCOCC2)CC1=O (stereo not drawn) [Tepraloxydim],effect on embryo development (Figure 11),zebrafish embryos [1]; at 200 µm,moderate deformities
same,lowest dose causing significant developmental abnormalities (toxic at),zebrafish embryos [1]; [4],> 200 µM
CC(C)=CC1C(C(=O)OCN2C(=O)C3=C(CCCC3)C2=O)C1(C)C (stereo not drawn) [Tetramethrin],effect on embryo development (Figure 11),zebrafish embryos [1]; at 200 µm,pronounced deformities
same,lowest dose causing significant developmental abnormalities (toxic at),zebrafish embryos [1]; [4],5 µM
same,phenotype score of single chemical (Average / Compound #1 / Compound #2 phenotype score),zebrafish embryos [2]; 5 µM,20
same,phenotype score of single chemical (Average phenotype score),zebrafish embryos [2]; 10 µM,15
COc1nc(C)nc(NC(=O)NS(=O)(=O)c2ccccc2OCCCl)n1 [Triasulfuron],lowest dose causing significant developmental abnormalities (toxic at),zebrafish embryos [1]; [4],> 200 µM
